Reference: the Bradley open melting point set (2014)

| Structure (SMILES) | melting point [°C] |
| --- | --- |
| CCOC(=O)c1ccccc1B(O)O [2-(ethoxycarbonyl)benzeneboronic acid] | 132 |
| CCS(=O)(=O)CCO [2-(ethylsulfonyl)ethanol] | 38 |
| CS(=O)(=O)CCO [2-(methylsulfonyl)ethanol] | 29 |
| CSc1ccccc1B(O)O [2-(methylthio)benzeneboronic acid] | 160 |
| CCCCCCOCCO [2-(n-hexyloxy)ethanol] | -42 |
| CCCSc1ncccc1C(N)=O [2-(n-propylthio)nicotinamide] | 147 |
| OB(O)c1ccccc1C(F)(F)F [2-(trifluoromethyl)benzeneboronic acid] | 109 |
| FC(F)(F)c1ccccc1CBr [2-(trifluoromethyl)benzyl bromide] | 29 |
| NCC(O)c1ccccc1 (configuration not stated) [2-Amino-1-phenylethanol] | 57 |
| Nc1nc2ccc([N+](=O)[O-])cc2s1 [2-Amino-6-nitrobenzothiazole] | 248 |
| O=[N+]([O-])c1cc(C(F)(F)F)cc([N+](=O)[O-])c1Cl [2-Chloro-1,3-dinitro-5-(trifluoromethyl)benzene] | 57 |
| O=C(CCl)c1ccccc1 [2-Chloro-1-phenylethanone] | 55 |
| CCC(C)(C)Cl [2-Chloro-2-methylbutane] | -73 |
| Cc1cc(Cl)nc2ccccc12 [2-Chloro-4-methylquinoline] | 56.9 |
| O=C(O)c1ccccc1Cl [2-Chlorobenzoic acid] | 142 |
| CC(Cl)C(=O)O (configuration not stated) [2-Chloropropanoic acid] | -13 |
| CCCCC(CC)CO (configuration not stated) [2-Ethylhexan-1-ol] | -76 |
| NC(=O)CI [2-Iodoacetamide] | 94 |
| CCC(C)I (configuration not stated) [2-Iodobutane] | -104 |
| Cc1ccccc1C(=O)O [2-Methylbenzoic acid] [listing 1 of 2 here] | 108 |
| Cc1ccccc1C(=O)O [2-Methylbenzoic acid] [listing 2 of 2 here] | 105 |
| CC=C(/C)C [2-Methylbut-2-ene] | -134 |

| Structure (SMILES) | melting point [°C] |
| --- | --- |
| CC(C)C#N [2-Methylpropanenitrile] | -72 |
| CC(CC(=O)O)C(=O)O (configuration not stated) [2-Methylsuccinic acid] | 111 |
| CC(C)[N+](=O)[O-] [2-Nitropropane] | -93 |
| COc1ccc(C=CC(=O)c2ccc(O)cc2)cc1 [2-Propen-1-one, 1-(4-hydroxyphenyl)-3-(4-methoxyphenyl)-] | 188 |
| O=[N+]([O-])c1ccccc1C=Cc1ccc2ccccc2n1 [2-[2-(2-Nitro-phenyl)-vinyl]-quinoline] | 102 |
| O=[N+]([O-])c1ccccc1/C=C(/Cl)c1ccccn1 [2-[(E)-1-chloro-2-(2-nitrophenyl)ethenyl]pyridine] | 61 |
| CC(=O)Nc1ccc(N)cn1 [2-acetamido-5-aminopyridine] | 149 |
| CC(=O)Nc1ccccc1O [2-acetamidophenol] | 207 |
| CC(=O)c1ccccc1C(=O)O [2-acetylbenzoic acid] | 117 |
| CC(=O)c1ccccc1-c1ccccc1 [2-acetylbiphenyl] | 56 |
| Nc1c(Br)cc(Br)cc1C(=O)O [2-amino-3,5-dibromobenzoic acid] | 233 |
| Nc1ncc(C(F)(F)F)cc1Br [2-amino-3-bromo-5-(trifluoromethyl)pyridine] | 100 |
| N#Cc1c(N)sc2c1CCCC2 [2-amino-4,5,6,7-tetrahydrobenzo[b]thiophene-3-carbonitrile] | 143 |
| Cc1cc(C)nc(N)n1 [2-amino-4,6-dimethylpyrimidine] | 153 |
| CC(C)(C)c1ccc(O)c(N)c1 [2-amino-4-tert-butylphenol] | 163 |
| Nc1ccc(Cl)cc1C(=O)c1ccccc1 [2-amino-5-chlorobenzophenone] | 98 |
| Nc1ccc([N+](=O)[O-])cc1C(=O)c1ccccc1 [2-amino-5-nitrobenzophenone] | 167 |
| Nc1cccc(F)c1C(=O)O [2-amino-6-fluorobenzoic acid] | 166 |
| Nc1ccc2cc3ccccc3cc2c1 [2-aminoanthracene] | 237 |
| NC(=O)c1ccccc1N [2-aminobenzamide] | 112 |
| Nc1ccccc1B(O)O [2-aminobenzeneboronic acid] | 189 |
| N#Cc1ccccc1N [2-aminobenzonitrile] | 48 |

| Structure (SMILES) | melting point [°C] |
| --- | --- |
| Nc1ccccc1-c1ccccc1 [2-aminobiphenyl] | 50 |
| NCCOB(c1ccccc1)c1ccccc1 [2-aminoethyl diphenylborinate] | 189 |
| Nc1ccccc1S [2-aminothiophenol] | 19 |
| O=c1[nH]c2ccccc2o1 [2-benzoxazolinone] | 140 |
| O=C(c1ccccc1)c1ccccn1 [2-benzoylpyridine] | 43 |
| COc1cc(Br)c(/C=C/C(=O)O)cc1OC [2-bromo-4,5-dimethoxycinnamic acid] | 255 |
| Nc1ccc(C(F)(F)F)cc1Br [2-bromo-4-(trifluoromethyl)aniline] | 30 |
| Cc1cc(C)c([N+](=O)[O-])c(C)c1Br [2-bromo-4-nitro-1,3,5-trimethylbenzene] | 60 |
| CCOc1ccc([N+](=O)[O-])cc1Br [2-bromo-4-nitrophenetole] | 55 |
| Fc1ccc(Br)nc1 [2-bromo-5-fluoropyridine] | 29 |
| FC(F)(F)c1cccc(Br)n1 [2-bromo-6-(trifluoromethyl)pyridine] | 50 |
| Cc1ccc(C)c(Br)c1 [2-bromo-p-xylene] | 10 |
| O=C(CBr)c1ccccc1 [2-bromoacetophenone] | 50 |
| O=C(O)c1ccccc1Br [2-bromobenzoic acid] | 149 |
| CCC(C)Br (configuration not stated) [2-bromobutane] | -112 |
| CC(C)Br [2-bromopropane] | -89 |
| CCC(C)=O [2-butanone] | -87 |
| CC(C)(C)Cl [2-chloro-2-methylpropane] | -25 |
| COc1ccc(C#N)c(Cl)c1OC [2-chloro-3,4-dimethoxybenzonitrile] | 102 |
| OCc1ccc(F)cc1Cl [2-chloro-4-fluorobenzyl alcohol] | 45 |
| COc1ccc(CBr)c(Cl)c1 [2-chloro-4-methoxybenzyl bromide] | 57 |
| Cc1ccc(N)c(Cl)c1 [2-chloro-4-methylaniline] | 7 |

Continued, values first:

| melting point [°C] | Structure (SMILES) |
| --- | --- |
| 51 | CCSc1ncccc1C(=O)Cl [2-(ethylthio)nicotinoyl chloride] |
| 124 | COC(=O)c1ccccc1S(N)(=O)=O [2-(methoxycarbonyl)benzenesulfonamide] |
| 167 | CSc1ccccc1C(=O)O [2-(methylthio)benzoic acid] |
| 44 | CSc1cnccn1 [2-(methylthio)pyrazine] |
| 46 | Oc1ccccc1C(F)(F)F [2-(trifluoromethyl)phenol] |
| 295 | Nc1ccc2c(c1)C(=O)c1ccccc1C2=O [2-Amino-9,10-anthraquinone] |
| 110 | O=C1c2ccccc2C(C2=CCCCC2)N1Cc1ccccc1 (configuration not stated) [2-Benzyl-3-cyclohexenylisoindolin-1-one] |
| -28 | CCc1ccccc1O [2-Ethylphenol] |
| 34.5 | CC1CCC(C(C)C)C(O)C1 (configuration not stated) [2-Isopropyl-5-methylcyclohexanol] |
| -65 | CC(C)C=O [2-Methylpropanal] |
| 161 | O=C(C=Cc1ccc([N+](=O)[O-])cc1)c1ccccc1 [2-Propen-1-one, 3- (4-nitrophenyl)-1-phenyl-] |
| 55 | O=[N+]([O-])c1ccccc1C#Cc1ccccn1 [2-[(2-nitrophenyl)ethynyl]pyridine] |
| 80 | NC1=NCCS1 [2-amino-2-thiazoline] |
| 93 | Nc1ncccc1OCc1ccccc1 [2-amino-3-benzyloxypyridine] |
| 201 | COc1nc(N)nc(SC)n1 [2-amino-4-methoxy-6-(methylthio)-1,3,5-triazine] |
| 208 | Nc1ncc(Br)cc1[N+](=O)[O-] [2-amino-5-bromo-3-nitropyridine] |
| 151 | Nc1cccc(Cl)c1C(=O)O [2-amino-6-chlorobenzoic acid] |
| 43 | Cc1cccc(N)n1 [2-amino-6-methylpyridine] |

| melting point [°C] | Structure (SMILES) |
| --- | --- |
| -95 | CC(C)N [2-aminopropane] |
| 58 | Nc1ccccn1 [2-aminopyridine] |
| 101 | N#CCc1nc2ccccc2s1 [2-benzothiazoleacetonitrile] |
| 119 | OB(O)c1cc(F)ccc1OCc1ccccc1 [2-benzyloxy-5-fluorobenzeneboronic acid] |
| 98 | OB(O)c1ccccc1OCc1ccccc1 [2-benzyloxybenzeneboronic acid] |
| 31 | O=C(CBr)c1c(F)c(F)c(F)c(F)c1F [2-bromo-2',3',4',5',6'-pentafluoroacetophenone] |
| 180 | O=C(O)c1cc([N+](=O)[O-])ccc1Br [2-bromo-5-nitrobenzoic acid] |
| -111 | Br/C(C)=CC [2-bromo-cis-2-butene] |
| 2 | Cc1cc(C)c(Br)c(C)c1 [2-bromomesitylene] [listing 1 of 2 here] |
| 2 | Cc1cc(C)c(Br)c(C)c1 [2-bromomesitylene] [listing 2 of 2 here] |
| 182 | O=C(O)c1cnc(Br)s1 [2-bromothiazole-5-carboxylic acid] |
| -27 | Cc1ccccc1Br [2-bromotoluene] |
| -2 | CC#CCO [2-butyn-1-ol] |
| 99 | O=Cc1ccccc1C(=O)O [2-carboxybenzaldehyde] |
| 220 | O=C(O)c1ccccc1B(O)O [2-carboxybenzeneboronic acid] |
| 114 | O=C(CCl)Nc1cccc([N+](=O)[O-])c1 [2-chloro-3'-nitroacetanilide] |
| 101 | O=[N+]([O-])c1cccnc1Cl [2-chloro-3-nitropyridine] |
| 70 | Nc1ccc(I)cc1Cl [2-chloro-4-iodoaniline] |
